Data on four compounds can be found in article PMC10813393 (Biomolecules, 2023).

One data set can be described thus: in vitro. The conditions noted are these: African green monkey; VERO cells, 72 h exposure, CCK-8; read-out: Cytotoxicity (CC50). It is filed as cell-based. On the procedure:
A CCK-8 assay (ab228554; Abcam, Cambridge, UK) was performed to evaluate the cytotoxicity of pure compounds. WST-8/CCK8 tetrazolium salt is reduced by cellular dehydrogenases to form an orange formazan product that is soluble in a tissue culture medium. The formazan produced is directly proportional to the number of living and metabolically active cells and is measured via absorbance at 460 nm. Therefore, VERO cells (2 × 10^4 cells/mL) were grown in 96-well microtiter plates at 37 °C in a 5% CO2 incubator for 24 h. Then, they were exposed to serial dilutions of L7OG CY, FA, and RA for 72 h and incubated with CCK8 tetrazolium salt for 4 h at 37 °C in a CO2 incubator. The absorbance was measured at 460 nm using a GloMax® Discover Microplate Reader (Promega, Madison, WI, USA), and the percentage of cellular viability was calculated and compared to untreated cells.
Commercially available cynarin (CY), rosmarinic acid (RA), folic acid (FA), and luteolin-7-O-glucuronide (L7OG) were used to prepare the respective stock solutions.
Specifically, L7OG was dissolved in DMSO to obtain a 5.5 mM solution, RA was dissolved in water to obtain an 8.0 mM solution, CY was dissolved in methanol to obtain a 4.7 mM solution, and FA was dissolved in ethanol to obtain an 8.7 mM solution.
Viability assay of natural compounds
VERO cells were exposed to different concentrations of L7OG, CY, FA, and RA for 72 h and incubated with CCK8 tetrazolium salt for 4 h before measuring the absorbance values in a microplate reader. The percentage of cellular viability was calculated and compared to untreated cells.
Figure S1. Cellular viability assay following treatment with different L7OG, CY, FA, and RA concentrations. VERO cells were incubated for […] with various concentrations of natural compounds, as reported in the material and methods section. Results represent the mean of three biologically independent experiments ± SD.
Table S1. Cytotoxicity (CC50) values (μM) of natural compounds on VERO cells.
(1 picture or pasted object on this page, not shown here)

The target of data set [1] is recombinant SARS-CoV-2 3CL^pro (Severe acute respiratory syndrome coronavirus 2, UniProt P0DTD1). Description: biochemical. It is filed as biochemical. The settings on record: for inhibition of the enzymatic activity of 3CL^pro (in words): judged from IC50 values; for IC50: luminogenic substrate, 60 min, read-out: IC50 for inhibiting SARS-CoV-2 3CL^pro.
The target in data set [2] is recombinant SARS-CoV-2 PL^pro (GST-PL^pro) (Severe acute respiratory syndrome coronavirus 2, UniProt P0DTD1). Description: SARS-CoV-2 PLpro luminescent assay. It is filed as biochemical. The settings on record: for inhibition of PL^pro (in words): judged from IC50 values; for IC50: luminogenic substrate, 60 min, read-out: IC50 for inhibiting SARS-CoV-2 PL^pro.
Another data set deals with SARS-CoV-2 M^pro. The conditions noted are these: cited from earlier work.

For orientation: CC50 means the concentration at which the toxic effect on the cells reaches its halfway point. By IC50 is commonly meant the concentration at which inhibition is half-maximal. On to `Nc1nc(=O)c2nc(CNc3ccc(C(=O)N[C@@H](CCC(=O)O)C(=O)O)cc3)cnc2[nH]1` [FA, folic acid, reference compound], for which the CC50 at 72 h in the data set “in vitro” was 107 µM. In data set [1], the “inhibition of the enzymatic activity of 3CL^pro (in words)” value (“inhibition … of 3CL^pro (in words)” for short) is listed as “moderate inhibition” and the IC50 amounted to 232 µM. Also, in data set [2], the “inhibition of PL^pro (in words)” value is “moderately inhibit” and the IC50 was 183 µM.
For `O=C(/C=C/c1ccc(O)c(O)c1)O[C@H](Cc1ccc(O)c(O)c1)C(=O)O` [RA, rosmarinic acid], the IC50 in the data set on SARS-CoV-2 M^pro was 6.84 µM; in data set [1], more than 300 µM; in data set [2], more than 300 µM. Moreover, in the data set “in vitro”, the 50% cytotoxic concentration (CC50) at 72 h was 78.3 µM. Further, in data set [1], the “inhibition … of 3CL^pro (in words)” value is “no enzymatic inhibition”.
For `O=C(O)[C@H]1O[C@@H](Oc2cc(O)c3c(=O)cc(-c4ccc(O)c(O)c4)oc3c2)[C@H](O)[C@@H](O)[C@@H]1O` [Compound L7OG, luteolin-7-O-glucuronide], the CC50 at 72 h in the data set “in vitro” stood at 55.7 µM. Besides, in data set [1], the “inhibition … of 3CL^pro (in words)” value is “moderate inhibition” and the IC50 came to 170 µM. In data set [2], the “inhibition of PL^pro (in words)” value is on record as “moderately inhibit” and the IC50 turned out to be 153 µM.
As to `O=C(/C=C/c1ccc(O)c(O)c1)O[C@@H]1C[C@@](OC(=O)/C=C/c2ccc(O)c(O)c2)(C(=O)O)C[C@@H](O)[C@@H]1O` [CY, 1,3-dicaffeoylquinic acid], in “in vitro”, the CC50 at 72 h stood at 91.5 µM. Besides, in data set [1], the “inhibition … of 3CL^pro (in words)” value is recorded as “no enzymatic inhibition” and the 50% inhibitory concentration (IC50) is more than 300 µM.
